Where two headings read alike, the source gives them in different places.
How the values were obtained:
Format in all cases: cell-based, Hepatitis C virus
[1] = test system: 1b, BB7-C316Y replicon; test: Replicon variant 3-day assay; conditions: for Fold Resistance: C316Y replicon vs 1b, BB7 (WT); for EC50: read-out: EC50 (μM or pg/ml) ± SD
Protocol: (§1) pBB7-replicon variant DNAs were linearized with Sca I, and in vitro transcription was performed using Ambion's […]® T7 High Yield Transcription kit (Austin, Tex.). Purified RNA transcripts were electroporated into Huh-7 cells in quadruplicates using a Biorad GENE PULSER® Electroporation System (Setting: 270V, 950 μF) (Hercules, Calif.). Stably transfected replicon variant cell lines were initially selected with 0.25 mg/ml G418 and stepped up to 1 mg/ml before further testing. One cell plate was stained with Crystal Violet to visualize the number of colonies and determine the colony formation efficiency. Individual cell clones from each plate were pooled and expanded for drug susceptibility testing.
(§2) The contribution of individual amino acid changes on drug resistance was assessed in replicon variants containing single amino acid mutations in NS5B in the background of the genotype 1b, BB7 adaptive replicon (Blight et al. (2000) Science 290:1972-74).
(§3) Drug susceptibility of the replicon-containing cells to various compounds was evaluated as described previously (Howe et al. (2004) Antimicrobial Agents Chem. 48:4813-21). Briefly, cells were treated with increasing concentrations of compounds in medium containing 2% FCS and no G418 for three days at 37° C. and 5% CO2. After incubation, total RNA from the replicon-containing cells was isolated. The levels of HCV, glyceraldehyde 3-phosphate dehydrogenase (GAPDH) and ribosomal (rRNA) RNAs were quantified using TAQMAN® (PE Applied Biosystems, Foster City, Calif.) reverse transcriptase PCR reactions. The amounts of HCV, 18S ribosomal, and GAPDH RNAs in each sample were estimated by comparing the number of cycles during the exponential phase of the PCR amplification with those in the corresponding standard curves. HCV RNA standards used for the construction of the standard curve were prepared by extracting the total RNA from the Clone A cells. The RNA sample was sent to National Genetics Institute to quantify HCV RNA. Total RNA extracted from Clone A cells was quantified by O.D.260 measurement and used for construction of the standard curves of rRNA and GAPDH. The concentrations of the compounds that inhibit 50% of the HCV RNA level (EC50) were determined using the MDL® LIFE SCIENCE WORKBENCH® (LSW) Data Analysis software (MDL Information Systems, San Leandro, Calif.) in Microsoft EXCEL®. The amounts of HCV or GAPDH RNAs in the samples were expressed as HCV RNA (copies) or GAPDH (ng), respectively, per μg of total RNA using rRNA as a marker for total RNA measurement.

[2] = test system: 1b, BB7 replicon (WT); test: Replicon 3-day assay, wild type; conditions: read-out: EC50 (μM or pg/ml) ± SD
Protocol: as §1, §2, §3

[3] = test system: 1b, BB7 replicon variants with single NS5B mutations; test: Replicon variant assay, several variants taken together; conditions: replicon variants with HCV-796-associated mutations
Protocol: as §1, §2, §3

SMILES | Fold Resistance [1] [fold] | EC50 ([1]; C316Y replicon) [µM] | EC50 ([2]; 1b, BB7 (WT) replicon) [µM] | inhibition of the C316Y replicon compared with wild type (in words) ([1]; C316Y replicon variant vs wild type replicon) | EC50 ([1]; Hepatitis C virus) [µM] | susceptibility of HCV-796-resistant replicon variants to other antiviral agents (in words) ([3]; listed as Ribavirin) | susceptibility of HCV-796-resistant replicon variants to other antiviral agents (in words) ([3]; listed as ribavirin) | EC50 ([2]; Hepatitis C virus) [µM]
CCC[C@]1(CC(=O)O)OCCc2c1[nH]c1c(C)ccc(C#N)c21 [HCV-371, [(1R)-5-cyano-8-methyl-1-propyl-1,3,4,9-tetrahydropyano[3,4-b]indol-1-yl]acetic acid] | 0.9 | 10.8 ± 0.8 | 12.2 ± 1.8 | – | – | – | – | –
NC(=O)c1ncn([C@@H]2O[C@H](CO)[C@@H](O)[C@H]2O)n1 [RBV, 1-β-D-ribofuranosyl-1H-1,2,4-triazole-3-carboxamide, reference compound] | 1.8 | – | – | as efficiently as in the wild type replicon | 201 ± 36.7 | inhibits | remained susceptible | 133 ± 40.5

From patent US20080182895A1 (priority 2006, published 2008)
